Where a SMILES comes first, the peptide text is derived from it. Bridges are numbered along the chain shown (N, C = ends).
Molecular target: T1, IDE (Homo sapiens, UniProt P14735)
T1 construct: made in house; host or cells: bacteria
T1 sequence (P14735 1-1019): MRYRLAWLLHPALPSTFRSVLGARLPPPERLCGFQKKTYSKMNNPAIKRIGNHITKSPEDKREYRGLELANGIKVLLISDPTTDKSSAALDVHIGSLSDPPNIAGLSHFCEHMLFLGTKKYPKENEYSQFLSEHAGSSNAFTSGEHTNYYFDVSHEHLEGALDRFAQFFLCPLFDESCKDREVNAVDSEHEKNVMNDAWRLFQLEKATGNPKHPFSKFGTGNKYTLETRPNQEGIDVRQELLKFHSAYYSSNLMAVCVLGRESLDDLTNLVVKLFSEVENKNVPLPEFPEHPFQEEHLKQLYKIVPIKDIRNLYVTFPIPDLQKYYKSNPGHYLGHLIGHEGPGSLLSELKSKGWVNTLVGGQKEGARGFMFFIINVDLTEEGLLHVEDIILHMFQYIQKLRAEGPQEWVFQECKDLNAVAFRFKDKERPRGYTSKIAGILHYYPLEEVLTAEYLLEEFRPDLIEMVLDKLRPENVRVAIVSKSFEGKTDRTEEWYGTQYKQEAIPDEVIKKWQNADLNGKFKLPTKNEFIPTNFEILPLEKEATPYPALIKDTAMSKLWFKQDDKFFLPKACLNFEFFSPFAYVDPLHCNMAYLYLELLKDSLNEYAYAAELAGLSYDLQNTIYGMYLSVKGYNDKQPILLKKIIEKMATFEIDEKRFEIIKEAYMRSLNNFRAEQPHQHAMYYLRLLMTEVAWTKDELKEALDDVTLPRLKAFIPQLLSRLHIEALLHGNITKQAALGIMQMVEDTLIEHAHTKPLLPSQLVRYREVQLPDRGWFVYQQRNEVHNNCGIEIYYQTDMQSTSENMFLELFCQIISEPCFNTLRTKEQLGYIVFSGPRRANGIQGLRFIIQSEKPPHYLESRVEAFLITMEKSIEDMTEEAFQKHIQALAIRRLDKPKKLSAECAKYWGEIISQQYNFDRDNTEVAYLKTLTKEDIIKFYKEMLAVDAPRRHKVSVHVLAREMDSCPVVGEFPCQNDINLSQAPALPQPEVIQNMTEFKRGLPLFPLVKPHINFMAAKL
Assay: Vulnerability of peptides to degradation by IDE: potency after 0 or 4 h pre-incubation with IDE, FRET1 assay
Assay type: biochemical
Settings: 4-h incubation with IDE
Text: FIG. 2. Vulnerability of peptides to degradation by IDE assessed by activity assays.
Because IDE is a peptidase, it was critical to determine whether the peptides were degraded by IDE over time. […] Because this peptide is capable of forming a disulfide bond between its two cysteines, but was not deliberately cyclized prior to testing, we suspect that the peptide (and related variants) may have cyclized over time, contributing to its stability. […]
Degradation Assays—IDE activity was quantified by monitoring the degradation of (7-methoxycoumarin-4-yl)acetic acid-[…](2,4-dinitrophenyl) (FRET1, 5 μM) (49,55), fluoresceinated and biotinylated amyloid β-protein (FAβB; 500 nM) or recombinant human insulin (50 nM) in PBS supplemented with 0.05% BSA. FRET1 degradation was measured by changes in fluorescence (λex=340 nm, λem=420 nm); FAβB degradation was monitored by fluorescence polarization (λex=488 nm, λem=525 nm), as described (56); and insulin degradation was quantified by ELISA. […] For quantitation of insulin degradation in primary murine skin fibroblasts, cells (1×10^5/well) were plated in 96-well plates and maintained in DMEM supplemented with 10% fetal bovine serum (FBS), 2 mM glutamine, penicillin and streptomycin. […]

CC(C)C[C@H](NC(=O)[C@H](CO)NC(=O)[C@@H](N)CCC(N)=O)C(=O)N1CCC[C@H]1C(=O)N[C@@H](Cc1c[nH]c2ccccc12)C(=O)N[C@H]1CSSC[C@@H](C(=O)N[C@H](C(=O)N[C@H](C(N)=O)[C@@H](C)O)C(C)C)NC(=O)[C@H](Cc2c[nH]cn2)NC(=O)[C@@H]2CCCN2C(=O)[C@H](Cc2ccc(O)cc2)NC1=O [Peptide P12-3A] (H-QSLPWCYPHCVT-NH2; disulfide 6-10 (inferred))
increase in potency at the 4-h time point relative to t=0: 1 fold

Reference: patent US11555055B2, “Peptide inhibitors of insulin-degrading enzyme” (The Regents of the University of California, priority 2017, dated 2023)
